Results as given in PMC6625456 (Molecular Medicine Reports, 2019).

Columns and labels:
[1] = tested on: AChE; details: read-out: IC50, inhibition of AChE; in vitro; cited from earlier work
[2] = tested on: BChE; details: read-out: IC50, inhibition of BChE; in vitro; cited from earlier work
[3] = tested on: Aβ1-42-induced amnesia in mice; details: cited from earlier work
[4] = concentration in entorhinal cortex and hippocampus after oral administration; type: in vivo, Sprague-Dawley (SD) rats
[5] = plasma pharmacokinetics after oral and intravenous administration; type: in vivo, Sprague-Dawley (SD) rats; details: both, Sprague-Dawley, rat
[6] = cumulative excretion in bile, urine and feces; type: in vivo, Sprague-Dawley (SD) rats; details: oral 100 mg/kg
[7] = biological target: CYP2D6 (Homo sapiens, UniProt P10635); assay: metabolism in recombinant human CYP450 enzymes; type: in vitro ADME; details: DL0410 10 µM; recombinant CYP1A2, CYP2C9, CYP2D6, CYP3A4; 37°C, 2 h
[8] = tested on: APP/PS1 transgenic mice; details: cited from earlier work

CYP2D6, sequence (P10635 whole entry): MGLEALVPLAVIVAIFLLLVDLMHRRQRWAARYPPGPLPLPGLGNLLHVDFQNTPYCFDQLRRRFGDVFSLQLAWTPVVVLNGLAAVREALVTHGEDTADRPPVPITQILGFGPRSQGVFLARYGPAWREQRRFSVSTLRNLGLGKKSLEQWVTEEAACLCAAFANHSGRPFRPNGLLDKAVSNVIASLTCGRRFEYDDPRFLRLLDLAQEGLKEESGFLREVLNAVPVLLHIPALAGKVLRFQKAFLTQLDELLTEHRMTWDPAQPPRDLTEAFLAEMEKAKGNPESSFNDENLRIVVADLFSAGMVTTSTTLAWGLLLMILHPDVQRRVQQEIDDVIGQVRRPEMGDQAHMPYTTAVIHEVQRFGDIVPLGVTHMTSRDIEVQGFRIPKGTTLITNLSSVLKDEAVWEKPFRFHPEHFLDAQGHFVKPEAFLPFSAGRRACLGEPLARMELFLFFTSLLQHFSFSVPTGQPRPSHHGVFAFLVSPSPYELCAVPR

For `Cl.Cl.O=C(CCN1CCCCC1)c1ccc(-c2ccc(C(=O)CCN3CCCCC3)cc2)cc1` [DL0410, 1,1′-([1,1′-biphenyl]-4,4′-diyl)bis(3-(piperidin-1-yl)propan-1-one) dihydrochloride], the IC50 [1] is given as 0.286 ± 0.004 µM, the IC50 [2] is given as 3.96 ± 0.099 µM and the “improvement of Aβ1-42-induced amnesia” value [3] is given as “improve memory deficits”. It also gave a Tmax ([4]; both, Sprague-Dawley, rat, entorhinal cortex and hippocampus, po, 100 mg/kg) of roughly 6 h, a Cmax ([4]; both, Sprague-Dawley, rat, entorhinal cortex, po, 100 mg/kg) of 46.2 ± 13.2 ng/mL and a Cmax ([4]; both, Sprague-Dawley, rat, hippocampus, po, 100 mg/kg) of 50.3 ± 6.92 ng/mL. The “crossing of the blood-brain barrier” value ([4]; rats, oral 100 mg/kg, detectable level in EC and HIP) was “able to cross the blood-brain barrier”, the Tmax [5] was roughly 0.75 h and the half-life [5] was 6.05 to 8.23 h. For the same molecule, the Cmax ([5]; 25 mg/kg) was 21.5 ± 3.46 ng/mL, the AUC(0-t) ([5]; 50 mg/kg) was 239 ± 63 ng·h/mL and the Cmax ([5]; 50 mg/kg) was 56.1 ± 4.01 ng/mL. For the same molecule, the Cmax ([5]; 100 mg/kg) was 196 ± 46.8 ng/mL, the “accumulated excretion in bile” value ([6]; rat bile, for 36 h) was 0.010 % of the dose and the cumulative fecal excretion ([6]; rat feces) was 34.71%. The cumulative urinary excretion ([6]; rat urine, in 72 h) was 0.086 % of the dose, the “CYP450 isoform involved in the reduction reaction” value [7] was “CYP2D6 was identified to be involved in the reduction of the carbonyl group” and the “improvement of memory deficits” value [8] was “improve memory deficits in APP/PS1 transgenic mice”.
